A short description of data set [1]: Macrolactamisation of unprotected diamino acid: Lys epsilon-NH2 to vinylogous amino acid CO2H, DMTMMT (BF4 salt, 1.5 equiv), DIPEA (4 equiv); free alpha-NH2 and OH present. Particulars: the molecule shown is the open-chain precursor, 12-membered ring, DMF, 1.0 mM, 25.0 °C.
The test system of data set [2] is RPMI 8226 cells. Put plainly: Cytotoxicity measurement (WST-1), RPMI 8226. The data set is classed as cell-based, human. The following applies: for EC50: Homo sapiens, RPMI 8226, 48 hours, WST-1, n = 3, read-out: Cytotoxicity EC50 (cell viability); for Potency in cytotoxicity screening relative to natural product 1: RPMI 8226, 30 and 100 nM compound concentration, n = 3, Figure 4B. Here is the method:
(§1) Cellular assays were performed on human multiple myeloma RPMI 8226 cells (Figure 4). First, relative inhibition of proteasome subunits β5 and β2 for all analogues and the natural product was measured at 30 nM compound concentration. Following incubation of the compounds in cell culture for 6 h, cells were lysed, and fluorogenic subunit-specific peptide substrates Suc-LLVY-AMC (β5) or Ac-RLR-AMC (β2) were incubated with the lysates; fluorescence readings provided relative proteasome activity levels in comparison with DMSO (Figure 4A). Next, cytotoxicity screening was performed at 30 and 100 nM concentrations for sufficient coverage of dynamic range (Figure 4B). […] Therefore, the improved cytotoxicity of phenyl cepafungin 50 likely results from a more pronounced loss of β5 function in RPMI 8226 cells. This drastic increase in proteasome inhibition may be due to π-stacking of the lipid tail phenyl ring with the β6 subunit residues Tyr106 and/or Tyr5. The β2 subunit-bound natural product has residues Tyr102 and Phe103 on the adjacent β3 subunit oriented further away from the terminal lipid methyl groups, and presumably would not facilitate π-stacking to the extent possible at the adjacent β6 subunit (see Figure 3 and Figure S4). […] These combined modifications were made in hopes that the effects of both substitutions would be additive. […] The presence of a Thr residue next to the cepafungin macrocycle appears to be favored over the ethyl side chain of desoxy-Thr analogue 44 as indicated by cytotoxicity and hydrogen-bonding seen in the cepafungin-bound crystal structure (Figures 3 and 4B).
AMC (β5) or Ac-RLR-AMC (β2). […]
Cytotoxicity Measurements
in DMSO) or DMSO and cultured for 48 hours. Toxicity was determined using the WST-1 assay
(Roche) according to the protocol of the manufacturer. (n = 3)
Figure S1. […]
In general terms: Formazan colour is commonly taken as a measure of viable cells.

For data set [3], the system named is MM.1S BtzR. The following applies: Cell line: MM.1S BtzR; Figure 2; cited from earlier work.
Data set [4] concerns RPMI 8226 cells. Particulars: ∼3700 proteins quantified, 19 in common; cited from earlier work.
Data set [5] concerns H929. Put plainly: Cytotoxicity measurement (WST-1), H929. Particulars: Homo sapiens, NCI-H929, 48 h, read-out: Cytotoxicity EC50.
Description: (§2) Cells of the indicated cell line origin were seeded in a 96-well plate (20,000 cells/well) in
(§3) cell culture media supplemented with indicated compounds at given concentrations (1,000x stock
(§4) in DMSO) or DMSO and cultured for 48 hours. Toxicity was determined using the WST-1 assay (Roche) according to the protocol of the manufacturer. (n = 3)
In data set [6] the test system is U266. In words: Cytotoxicity measurement (WST-1), U266. Particulars: Homo sapiens, U-266, 48 h, read-out: Cytotoxicity EC50.
Description: as §2, §3, §4
Data set [7] has as its system Mino. The following applies: Cell line: Mino; Figure 2; cited from earlier work.
Data set [8] relates to RPMI 8226 cells. Put plainly: Global proteomics analysis via LC-MS/MS of RPMI 8226 cells treated with BTZ or 50 (Table S5). In kind it is cell-based, human.
Description: Finally, we evaluated the changes in global protein expression following treatment of RPMI 8226 cells with either BTZ or 50. […] Following treatment, cells were collected via centrifugation, and protein lysates were digested with trypsin and analyzed using LC-MS/MS.
Global proteomics analysis via LC-MS/MS.
RPMI 8226 cells were seeded in a 6-well plate (1,000,000 cells/well) in cell culture media supplemented with DMSO, BTZ (2.5 nM, 1000x stock in DMSO), or 50 (3 nM, 1000x stock in DMSO) for 14 h. Cells were centrifuged (3,000 x g 5 min 4°C) and washed twice with PBS. Cell pellets were resuspended in PBS and protein concentration was determined using the Bradford assay (Bio-Rad). Urea (9 M in 100 mM NH4HCO3 pH 8) was added to a final concentration of 6 M to 30 µg lysate (15 µL PBS). […] Peptides were resuspended in water with 0.1 % FA and analyzed using EASY-nLC 1200 nano-UHPLC coupled to Q Exactive HF-X Quadrupole-Orbitrap mass spectrometer (Thermo Scientific). […]
The MS data were analyzed with MaxQuant (V2.0.3.0) and searched against the human proteome (Uniprot) and a common list of contaminants (included in MaxQuant). […] The minimum peptide length was set to 6 amino acids and peptide re-quantification and “match between runs” was enabled. […]
The subject of data set [9] is JeKo-1. Put plainly: Cytotoxicity measurement (WST-1), JeKo-1. The following applies: Homo sapiens, JeKo-1, 48 h, read-out: Cytotoxicity EC50.
Description: as §2, §3, §4
Data set [10] deals with Mino BtzR. Particulars: Cell line: Mino BtzR; Figure 2; cited from earlier work.
For data set [11], the system named is Mino. In words: Cytotoxicity measurement (WST-1), Mino. Particulars: Homo sapiens, 48 h, read-out: Cytotoxicity EC50.
Description: as §2, §3, §4
Data set [12] has as its system MM.1S. The following applies: Cell line: MM.1S; Figure 2; cited from earlier work.
Data set [13] concerns HBL2. Put plainly: Cytotoxicity measurement (WST-1), HBL2. The following applies: Homo sapiens, HBL2, 48 h, read-out: Cytotoxicity EC50.
Description: as §2, §3, §4
Data set [14] relates to RPMI 8226 cells. Put plainly: Cytotoxicity measurement (WST-1), RPMI 8226. In kind it is cell-based. The following applies: Homo sapiens, 24 h; RPMI 8226, used as treatment concentration for proteomics.
For data set [15], the target named is T1, proteasome subunit β5 (Homo sapiens, UniProt P28074).
T1 construct: Following incubation of the compounds in cell culture for 6 h, cells were lysed; endogenous in cells; host or cells: RPMI 8226 (human multiple myeloma)
Particulars: in situ in RPMI 8226 cells; preliminary analogue series, Figure 2; cited from earlier work.

Data set [16] has as its target T1, proteasome subunit β5. In words: In situ β5 proteasome activity assay (Suc-LLVY-AMC) in RPMI 8226 cells. In kind it is cell-based.
Text: A preliminary series of analogues, including the natural product glidobactin A (2), were synthesized by largely the same route (Scheme 2B, Figure 2).[36] Desoxycepafungin (38) was synthesized from Boc-Lys(Boc)-OH by peptide couplings/macrocyclization to assess the role of the macrocycle hydroxylation in 1 toward proteasome inhibition. The saturated cepafungin analogue 39 was designed to address the possible role of rigidity in the tail fragment induced by the diene seen in many natural cepafungins and glidobactins. An analogue bearing unsaturation at its macrocyclic lysine was envisioned to provide a head-to-head comparison between the cepafungin and syringolin macrocyclic core. […] Proteasome subunit β5 IC50 values were determined in situ in RPMI 8226 cells. In close agreement with prior measurement of β5 IC50 for natural 1 and 2 in purified yeast proteasome,[12] in our hands the additional branching methyl in 1 indeed leads to ca. 5-fold improved IC50 compared to 2 in RPMI 8226 cells. […] Likewise, saturation of the fatty acid fragment in 39 causes ca. 14-fold decrease in β5 inhibition. This preliminary series of analogues highlighted that the macrocyclic hydroxylation, fatty acid unsaturation, and terminal lipid functionality are critical for potent proteasome inhibitory activity.
as §1, with “and 4B). […]” for “and 4B).”
Mammalian cell culture and lysate preparation
Mammalian cells were maintained in RPMI-1640 media. All media were supplemented with 10% fetal bovine serum (FBS, Life Technologies Cat# 10437028), non-essential amino acids (Sigma-Aldrich Cat# M7145) and penicillin/streptomycin (Sigma-Aldrich Cat# P4333). Cells were grown at 37 °C under 5% CO2 atmosphere. […] Cells were lysed by needle sonication to obtain cell lysates and protein concentration was determined using the […]
fluorescence was read at A360ex/A460em. […]

The term EC50 denotes the concentration that produces a half-maximal response. The IC50 is the concentration that gives 50% inhibition.

Each structure is given as a SMILES string. Like-named read-outs stand apart in the source and are kept apart here.

For the molecule `CC(C)[C@@H](/C=C/C(=O)O)NC(=O)[C@@H](N)C[C@@H](O)CCN`, in data set [1] (36.0 h), the ring closure, yield by NMR was 47%.

As for `C[C@@H](/C=C/C(=O)O)NC(=O)[C@@H](N)CC(=O)CCN`, the ring closure, yield by NMR in [1] (36.0 h) is 51%.

As for `C[C@@H](/C=C/C(=O)O)NC(=O)[C@@H](N)C[C@@H](O)CCN`, the ring closure, yield by NMR in data set [1] is 63%.

As to `C[C@@H](/C=C/C(=O)O)NC(=O)[C@@H](N)C[C@H](O)CCN`, the ring closure, yield by NMR in data set [1] (36.0 h) was determined as 59%.

With `C[C@@H](/C=C/C(=O)O)NC(=O)[C@@H](N)[C@@H](O)CCCN`, the ring closure, yield by NMR in data set [1] (36.0 h) was 47%.

For `CC(C)[C@H]1/C=C/C(=O)NCC[C@H](O)C[C@H](NC(=O)[C@@H](NC(=O)/C=C/C=C/CCCCCc2ccccc2)[C@@H](C)O)C(=O)N1` [S39], the EC50 in [2] is 4.5 nM.

With `CC(C)C[C@H](NC(=O)[C@H](Cc1ccccc1)NC(=O)c1cnccn1)B(O)O` [bortezomib], the EC50 was 28 ± 0.6 nM in [3]; 2.2 ± 0.1 nM in data set [2]; 1.5 ± 0.2 nM in [5]; 3.1 ± 0.1 nM in data set [6]; 10 ± 0.4 nM in [7]; 7 ± 0.5 nM in [9]. The EC50 in [10] was 23 ± 1.1 nM; in data set [11], 7.4 ± 0.3 nM; in [12], 2.3 ± 0.03 nM; in [13], 2.5 ± 0.4 nM; in data set [14] it was 2.5 nM. For the same molecule, in data set [4], the “number of proteins upregulated compared to DMSO control” value is reported as 25 proteins. For the same molecule, the “overlap of upregulated proteins commonly affected by BTZ and 50” value in [8] (17 common proteins) came to 59%. In addition, the “number of proteins with statistically significant increase in expression” value in data set [8] (RPMI 8226, 14 h, 2.5 nM BTZ or 3 nM 50 vs DMSO, out of 4080 quantified, FDR 5%, S0 0.1) is 29 proteins.

`CCCCCCC/C=C/C=C/C(=O)N[C@H](C(=O)N[C@H]1C[C@@H](O)CCNC(=O)/C=C/[C@H](C)NC1=O)[C@@H](C)O` [compound 2, glidobactin A]: the 50% inhibitory concentration (IC50) in [15] is 77 ± 5 nM.

For the molecule `CCCCCCCCCCCCNC(=O)N[C@H](C(=O)N[C@H]1/C=C/CCNC(=O)/C=C/[C@H](C)NC1=O)C(C)C` [compound 37, TIR-199], the EC50 in data set [3] was 81 ± 5.8 nM; in data set [7] it was 64 ± 2.1 nM; in data set [10], 130 ± 2 nM; in data set [12] it was 48 ± 8.7 nM.

For `CC(C)CCCCC/C=C/C=C/C(=O)N[C@H](C(=O)N[C@H]1CCCCNC(=O)/C=C/[C@H](C)NC1=O)[C@@H](C)O` [compound 38, Desoxycepafungin], in data set [15], the IC50 was 184 ± 29 nM. The “fold higher IC50 than 1” value in data set [16] (β5, RPMI 8226 cells) is “ca. 11 fold”.

In the case of `CC(C)CCCCCCCCCC(=O)NC(C(=O)NC1CC(O)CCNC(=O)C=CC(C)NC1=O)C(C)O` (stereo not drawn) [compound 39], the half-maximal inhibitory concentration (IC50) in data set [15] is 219 ± 11 nM. The “fold decrease in β5 inhibition on saturation of the fatty acid fragment” value in [16] (39 versus 1, RPMI 8226 cells) was “ca. 14 fold”.

In the case of `CC(C)CCCCC/C=C/C=C/C(=O)N[C@H](C(=O)N[C@H]1C[C@H](O)CCNC(=O)/C=C/[C@H](C)NC1=O)[C@@H](C)O` [compound 40, epi-4-OH cepafungin], the “Potency in cytotoxicity screening relative to natural product 1” value in data set [2] was “nearly inactive at both concentrations”.

Take `CC(C)CCCCC/C=C/C=C/C(=O)N[C@H](C(=O)N[C@@H]1C(=O)N[C@@H](C)/C=C/C(=O)NCCC[C@@H]1O)[C@@H](C)O` [compound 41, 3-OH cepafungin]: the “Potency in cytotoxicity screening relative to natural product 1” value in data set [2] was “nearly inactive at both concentrations”.

As for `CC(C)CCCCC/C=C/C=C/C(=O)N[C@H](C(=O)N[C@H]1CC(=O)CCNC(=O)/C=C/[C@H](C)NC1=O)[C@@H](C)O` [compound 42, keto cepafungin], the “Potency in cytotoxicity screening relative to natural product 1” value in data set [2] is on record as “potency approaching that of the natural product”.

On to `CC(C)CCCCC/C=C/C=C/C(=O)N[C@H](C(=O)N[C@H]1C[C@@H](O)CCNC(=O)/C=C/[C@H](C(C)C)NC1=O)[C@@H](C)O` [compound 43, valinyl cepafungin], for which the “Potency in cytotoxicity screening relative to natural product 1” value in data set [2] is on record as “more potent than the parent natural product 1”.
